The target of data set [1] is T1, DPP4 (Homo sapiens, UniProt P27487). Description: In vitro DPP4 inhibition assay, fluorometric, H-Gly-Pro-amidomethyl coumarin substrate. To be noted: for logIC50: Figure 4, competitive inhibitors.
Method: The compounds were screened for their inhibitory activity against DPP4 by a fluorometric assay, measuring the hydrolysis rate of the substrate Gly-Pro-amidomethyl coumarin in the absence and presence of the inhibitor. […] DPP-4 activity was assessed by measuring the hydrolysis rate of the substrate H-Gly-Pro-amidomethyl coumarin. The resulting fluorescent product, 7-Amino-4-Methyl Coumarin (AMC), was monitored with a Tecan Pro2000 microplate fluorescence reader (Tecan Ltd, Zurich, Switzerland) at an excitation wavelength of 360 nm and an emission wavelength of 460 nm, with measurements taken every 60 s for 30 min. The inhibitors, dissolved in DMSO, were added to the reaction buffer (20 mM Tris-HCl, pH 8, 100 mM NaCl, and 1 mM EDTA) at 10 µL per reaction, along with 0.17 µg/mL of enzyme, and incubated for 10 min. After incubation, 50 µL of the appropriate substrate concentration was added, bringing the total reaction volume to 100 µL. The inhibition (%) was calculated as ((Fc − Fi)/Fc) × 100, where Fc is the fluorescence value of the control (no inhibitor-total activity) and Fi is the fluorescence value in the presence of the inhibitor. […] The volume of 10 μL DMSO was added to the total activity control instead of the inhibitor. A blank containing all other components except for the enzyme was abstracted in all cases. Each determination was performed in triplicate.
For data set [2] the following is noted: cited from earlier work.
Data set [3] deals with T1, DPP4. The data set is described as follows: Inhibition kinetic analysis of DPP4 (Lineweaver–Burk plot). The conditions noted are these: for Κm of the enzyme in the presence of the compound: without compound 49.7 ± 3.8; for Inhibition Mode: from Lineweaver–Burk plot, substrate 17–80 μM. The class given is biochemical. The protocol:
To further investigate the mode of inhibition, Lineweaver–Burk curves were prepared for some of the compounds.
The concentration range of the substrate (H-Gly-Pro-AMC) was 17–80 μM, and the final concentration of DPP-4 was 0.17 µg/mL. The maximum enzymatic reaction rate (Vmax) and Michaelis constant (Km) were calculated according to the Lineweaver–Burk plot.

Setting [4] is: read-out: % Inhibition, 50 μΜ Substrate.
Where [5] appears, read: read-out: % Inhibition, 100 μΜ Substrate.
Setting [6] is: compound concentration 15.000 μΜ.
Setting [7] is: compound concentration 0.080 μΜ.
Where [8] appears, read: compound concentration 0.100 μΜ.

Molecules are shown by their SMILES. Where two headings read alike, the source gives them in different places.

T1 sequence (P27487 whole entry): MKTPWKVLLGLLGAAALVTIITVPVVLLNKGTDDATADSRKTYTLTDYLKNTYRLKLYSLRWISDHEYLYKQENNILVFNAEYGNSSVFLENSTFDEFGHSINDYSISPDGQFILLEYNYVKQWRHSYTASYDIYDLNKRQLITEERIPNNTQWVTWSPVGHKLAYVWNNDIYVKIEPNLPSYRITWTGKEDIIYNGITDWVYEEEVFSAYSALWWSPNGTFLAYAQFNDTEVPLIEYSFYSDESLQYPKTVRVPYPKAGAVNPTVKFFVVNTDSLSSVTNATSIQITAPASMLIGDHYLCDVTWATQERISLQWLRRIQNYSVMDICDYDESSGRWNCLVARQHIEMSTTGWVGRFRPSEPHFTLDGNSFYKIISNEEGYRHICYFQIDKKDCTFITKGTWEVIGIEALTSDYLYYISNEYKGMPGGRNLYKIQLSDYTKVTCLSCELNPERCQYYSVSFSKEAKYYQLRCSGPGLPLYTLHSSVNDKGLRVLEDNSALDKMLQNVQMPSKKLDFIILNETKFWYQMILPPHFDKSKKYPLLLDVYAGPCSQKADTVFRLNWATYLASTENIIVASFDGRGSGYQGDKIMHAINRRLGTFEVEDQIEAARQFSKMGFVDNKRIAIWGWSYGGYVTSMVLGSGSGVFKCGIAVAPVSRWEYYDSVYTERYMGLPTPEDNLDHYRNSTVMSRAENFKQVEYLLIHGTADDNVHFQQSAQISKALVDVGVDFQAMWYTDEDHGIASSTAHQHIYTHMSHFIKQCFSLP

In data set [1], `O=C1CSC(c2c(Cl)cccc2Cl)N1c1nc2ccc(OC(F)(F)F)cc2s1` (stereo not shown) [h1] had a logIC50 of 1.491. The IC50 in data set [1] (IC50, DPP4, triplicate) turned out to be 31 ± 3.8 nM. The inhibition at 0.08 µM in data set [1] (setting [4]) worked out at 79.8%; in data set [1] (setting [5]), 12%.

On to `O=C1CSC(c2ccc(F)cc2)N1c1nc2ccc(Cl)cc2s1` (stereo not shown) [c1], for which the IC50 in data set [1] (IC50, DPP4, triplicate) is greater than 20000 nM. In addition, the inhibition at 10 µM in data set [1] (setting [4]) came to 33.5%; in data set [1] (setting [5]) it was 11.4%.

Take `O=C1CSC(c2ccc(Cl)cc2)N1c1nc2ccc(Cl)cc2s1` (stereo not shown) [c3]: in data set [1], the logIC50 was determined as 4.097. Besides, in data set [1] (IC50, DPP4, triplicate), half-maximal inhibition (IC50) was put at 12500 ± 200 nM. The inhibition at 10 µM stood at 41.6% in data set [1] (setting [4]) and 28% in data set [1] (setting [5]).

In the case of `N[C@@H](CC(=O)N1CCn2c(nnc2C(F)(F)F)C1)Cc1cc(F)c(F)cc1F` [sitagliptin], the “ends unmodified in the urine” value in data set [2] is recorded as 79%.

`O=C1CSC(c2ccc([N+](=O)[O-])cc2)N1c1nc2ccc(Cl)cc2s1` (stereo not shown) [c2]: half-maximal inhibition in data set [1] (IC50, DPP4, triplicate) (IC50) required 8600 ± 200 nM. Besides, the inhibition at 10 µM is 66% in data set [1] (setting [4]) and 14.1% in data set [1] (setting [5]). The “Κm of the enzyme in the presence of the compound” value (“Κm of the enzyme” below) in data set [3] (setting [6]) is listed as 87.6 ± 4.8. Besides, the “Inhibition Mode” value in data set [3] is reported as “competitive”.

For `O=C1CSC(c2c(F)cccc2Cl)N1c1nc2ccc(OC(F)(F)F)cc2s1` (stereo not shown) [h3, 3-(6-OCF3-benzo[d]thiazol-2-yl)-2-(2-F,6-Cl-phenyl) thiazolidin-4-one], in data set [1], the logIC50 came out at 1.079. In addition, in data set [1] (IC50, DPP4, triplicate), it took 12 ± 0.5 nM to reach half-maximal inhibition (IC50). Besides, the inhibition at 0.08 µM in data set [1] (setting [4]) is 62%; in data set [1] (setting [5]) it was 20%. The “Κm of the enzyme” value in data set [3] (compound concentration 0.010 μΜ) is on record as 103.1 ± 9.3. Also, the “Inhibition Mode” value in data set [3] is given as “competitive”.

In data set [1] (IC50, DPP4, triplicate), `COc1ccc(C2SCC(=O)N2c2nc3ccc(Cl)cc3s2)cc1` (stereo not shown) [c4] yielded an IC50 of 11500 ± 1500 nM. In addition, the values for the inhibition at 10 µM in data set [1] (setting [4]) and in data set [1] (setting [5]) were 48.5% and 68.5%, respectively. The “Κm of the enzyme” value in data set [3] (setting [6]) worked out at 19.4 ± 9.3. In data set [3], the “Inhibition Mode” value is on record as “uncompetitive”.

Consider `O=C1CSC(c2ccc(Cl)cc2)N1c1nc2ccc(OC(F)(F)F)cc2s1` (stereo not shown) [h8], for which, in data set [1] (IC50, DPP4, triplicate), 90.6 ± 8.8 nM corresponded to half-maximal inhibition (IC50). Also, the inhibition at 0.08 µM in data set [1] (setting [4]) came out at 45%; in data set [1] (setting [5]), 26%. In addition, in data set [3] (setting [7]), the “Κm of the enzyme” value turned out to be 167.9 ± 15.8. Further, in data set [3], the “Inhibition Mode” value is “mixed”.

As to `COc1ccc(C2SCC(=O)N2c2nc3ccc(OC(F)(F)F)cc3s2)cc1` (stereo not shown) [h9], the IC50 in data set [1] (IC50, DPP4, triplicate) stood at 72.3 ± 5.2 nM. Also, the figures for the inhibition at 0.08 µM in data set [1] (setting [4]) and in data set [1] (setting [5]) were 52.3% and 37.6%, respectively. Also, in data set [3], the “Inhibition Mode” value was “mixed”.

`O=C1CSC(c2c(F)cccc2Cl)N1c1nc2ccc(C34CC5CC(CC(C5)C3)C4)cc2s1` (stereo not shown) [m2, 3-(6-Ad-benzo[d]thiazol-2-yl)-2-(2-F,6-Cl-phenyl) thiazolidin-4-one]: it took 71.5 ± 8.3 nM to reach half-maximal inhibition in data set [1] (IC50, DPP4, triplicate) (IC50). Moreover, the inhibition at 0.08 µM in data set [1] (setting [4]) came out at 52%; in data set [1] (setting [5]), 69.7%. In data set [3] (compound concentration 0.060 μΜ), the “Κm of the enzyme” value was 30.6 ± 2.7. Also, the “Inhibition Mode” value in data set [3] was “uncompetitive”.

`Cc1cc(C23CC4CC(CC(C4)C2)C3)cc2sc(N3C(=O)CSC3c3c(Cl)cccc3Cl)nc12` (stereo not shown) [n1, 3-(4-CH3,6-Ad-benzo[d]thiazol-2-yl)-2-(2,6-di-Cl-phenyl) thiazolidin-4-one] yielded an IC50 in data set [1] (IC50, DPP4, triplicate) of 137 ± 4.6 nM. Further, the values for the inhibition at 0.08 µM in data set [1] (setting [4]) and in data set [1] (setting [5]) were 36.8% and 37.2%, respectively. In addition, the “Κm of the enzyme” value in data set [3] (setting [8]) turned out to be 49.8 ± 0.6. The “Inhibition Mode” value in data set [3] was “non-competitive”.

In data set [1], `Cc1cc(C23CC4CC(CC(C4)C2)C3)cc2sc(N3C(=O)CSC3c3c(F)cccc3F)nc12` (stereo not shown) [n2] came in with a logIC50 of 1.681. Moreover, the IC50 was 48 nM in data set [1] (IC50 (as printed in Figure 4), printed in the picture of Figure 4 without unit) and 48.3 ± 5.2 nM in data set [1] (IC50, DPP4, triplicate). The inhibition at 0.08 µM turned out to be 66.3% in data set [1] (setting [4]) and 0% in data set [1] (setting [5]). Moreover, the “Κm of the enzyme” value in data set [3] (setting [8]) stood at 117.2 ± 1.5. The “Inhibition Mode” value in data set [3] is given as “competitive”.

Molecule `O=C1CSC(c2ccc(Cl)cc2Cl)N1c1nc2ccc(OC(F)(F)F)cc2s1` (stereo not shown) [h5] registered an IC50 in data set [1] (IC50, DPP4, triplicate) of 23.7 ± 2 nM. For the same molecule, the inhibition at 0.08 µM in data set [1] (setting [4]) was 45%; in data set [1] (setting [5]) it was 14%.

On to `O=C1CSC(c2ccc([N+](=O)[O-])cc2)N1c1nc2ccc(OC(F)(F)F)cc2s1` (stereo not shown) [h7], for which the IC50 in data set [1] (IC50, DPP4, triplicate) was found to be 25.5 ± 3 nM. The inhibition at 0.08 µM is 67% in data set [1] (setting [4]) and 55% in data set [1] (setting [5]).

As to `CC#CCn1c(N2CCC[C@@H](N)C2)nc2c1c(=O)n(Cc1nc(C)c3ccccc3n1)c(=O)n2C` [linagliptin], in data set [2], the “excreted unmodified in the feces” value was 87%.

Regarding `O=C1CSC(c2ccc(F)cc2)N1c1nc2ccc(OC(F)(F)F)cc2s1` (stereo not shown) [h6], the concentration for half-maximal inhibition (IC50) in data set [1] (IC50, DPP4, triplicate) was greater than 100 nM. Besides, the inhibition at 0.08 µM in data set [1] (setting [4]) came to 46.8%; in data set [1] (setting [5]) it was 0%.

`O=C1CSC(c2ccc(O)cc2)N1c1nc2ccc(OC(F)(F)F)cc2s1` (stereo not shown) [h10] gave an IC50 in data set [1] (IC50, DPP4, triplicate) greater than 100 nM. The inhibition at 0.08 µM in data set [1] (setting [4]) was 38%; in data set [1] (setting [5]), 0%.

As for `O=C1CSC(c2cccc(Cl)c2Cl)N1c1nc2ccc(OC(F)(F)F)cc2s1` (stereo not shown) [h4], the logIC50 in data set [1] is recorded as 1.431. Further, the IC50 in data set [1] (IC50, DPP4, triplicate) is 27 ± 0.5 nM. In addition, the inhibition at 0.08 µM was found to be 84.4% in data set [1] (setting [4]) and 12.1% in data set [1] (setting [5]). Moreover, in data set [3] (setting [7]), the “Κm of the enzyme” value was found to be 98 ± 26.9. Also, the “Inhibition Mode” value in data set [3] is “competitive”.

The values are drawn from publication PMC11768251, “Τhiazolidine-4-One Derivatives with Variable Modes of Inhibitory Action Against DPP4, a Drug Target with Multiple Activities and Established Role in Diabetes Mellitus Type II” (Pharmaceuticals, 2025).
